Assay in all cases: relative viability (nuclei count vs DMSO), 5 days (fraction); higher = more cells survive
Compound in assay [1]: O=C(C[C@H]1NCCC[C@@H]1O)Cn1cnc2cc(Br)c(Cl)cc2c1=O (racemic) [Halofuginone] + Cc1cc(Nc2cc(N3CCN(C)CC3)nc(Sc3ccc(NC(=O)C4CC4)cc3)n2)n[nH]1 [Tozasertib] (partner 0.1 µM)
A digest of the protocol:
(§1)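 Dosing by pin tool came one day after lung cancer cell lines were seeded in 1536-well plates, using either one drug or a fixed anchor-drug dose plus five library-drug doses (not always all listed) in √10 steps. After 5 days, nuclei were counted on 4× images. Relative viability is treated-well nuclei count divided by vehicle-well nuclei count, and values are medians of duplicate plates.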

Compound in assay [2]: O=C(C[C@H]1NCCC[C@@H]1O)Cn1cnc2cc(Br)c(Cl)cc2c1=O (racemic) [Halofuginone] + CC(=O)c1c(C)c2cnc(Nc3ccc(N4CCNCC4)cn3)nc2n(C2CCCC2)c1=O [Palbociclib] (partner 0.5 µM)
A digest of the protocol: as §1

Compound in the assay “Halofuginone + Alpelisib”: O=C(C[C@H]1NCCC[C@@H]1O)Cn1cnc2cc(Br)c(Cl)cc2c1=O (racemic) [Halofuginone] + Cc1nc(NC(=O)N2CCC[C@H]2C(N)=O)sc1-c1ccnc(C(C)(C)C(F)(F)F)c1 [Alpelisib] (partner 2 µM)
A digest of the protocol: as §1

Compound in the assay “Cediranib + Vorinostat”: COc1cc2c(Oc3ccc4[nH]c(C)cc4c3F)ncnc2cc1OCCCN1CCCC1 [Cediranib] + O=C(CCCCCCC(=O)Nc1ccccc1)NO [Vorinostat] (partner 1 µM)
A digest of the protocol:
as §1

For the cell line HCC-366, the relative viability was 0.142 in assay [1] (first compound 0.001 µM); 0.115 in assay [1] (first compound 0.003162 µM); 0.0951 in assay [1] (first compound 0.01 µM); 0.104 in assay [1] (first compound 0.03162 µM); 0.0283 in assay [1] (first compound 0.1 µM); 0.363 in assay [2] (first compound 0.001 µM). Further, the relative viability is 0.472 in assay [2] (first compound 0.003162 µM); 0.351 in assay [2] (first compound 0.01 µM); 0.358 in assay [2] (first compound 0.03162 µM); 0.14 in assay [2] (first compound 0.1 µM); 0.369 with Halofuginone + Alpelisib (first compound 0.001 µM); 0.412 with Halofuginone + Alpelisib (first compound 0.003162 µM). In addition, the relative viability amounted to 0.449 with Halofuginone + Alpelisib (first compound 0.01 µM); 0.385 with Halofuginone + Alpelisib (first compound 0.03162 µM); 0.197 with Halofuginone + Alpelisib (first compound 0.1 µM); 0.346 with Cediranib + Vorinostat (first compound 0.04 µM); 0.401 with Cediranib + Vorinostat (first compound 0.1265 µM); 0.29 with Cediranib + Vorinostat (first compound 0.4 µM). Moreover, the relative viability with Cediranib + Vorinostat (first compound 1.265 µM) amounted to 0.287; with Cediranib + Vorinostat (first compound 4 µM), 0.394.

HCC-827: the relative viability in assay [1] (first compound 0.001 µM) is 0.419; in assay [1] (first compound 0.003162 µM), 0.39; in assay [1] (first compound 0.01 µM) it was 0.427; in assay [1] (first compound 0.03162 µM) it was 0.398; in assay [1] (first compound 0.1 µM), 0.456; in assay [2] (first compound 0.001 µM), 0.485. Besides, the relative viability in assay [2] (first compound 0.003162 µM) was determined as 0.459; in assay [2] (first compound 0.01 µM), 0.491; in assay [2] (first compound 0.03162 µM) it was 0.56; in assay [2] (first compound 0.1 µM), 0.478; with Halofuginone + Alpelisib (first compound 0.001 µM), 0.98; in the assay with Halofuginone + Alpelisib (first compound 0.003162 µM), 0.959. Further, the relative viability with Halofuginone + Alpelisib (first compound 0.01 µM) was 0.908; with Halofuginone + Alpelisib (first compound 0.03162 µM), 1.07; with Halofuginone + Alpelisib (first compound 0.1 µM) it was 0.815; with Cediranib + Vorinostat (first compound 0.04 µM), 0.847; with Cediranib + Vorinostat (first compound 0.1265 µM), 0.574; in the assay with Cediranib + Vorinostat (first compound 0.4 µM), 0.846. Also, the relative viability with Cediranib + Vorinostat (first compound 1.265 µM) was found to be 0.729; with Cediranib + Vorinostat (first compound 4 µM), 1.12.

With HOP-62, the relative viability was determined as 0.445 in assay [1] (first compound 0.001 µM); 0.406 in assay [1] (first compound 0.003162 µM); 0.386 in assay [1] (first compound 0.01 µM); 0.32 in assay [1] (first compound 0.03162 µM); 0.231 in assay [1] (first compound 0.1 µM); 0.435 in assay [2] (first compound 0.001 µM). In addition, the relative viability stood at 0.427 in assay [2] (first compound 0.003162 µM); 0.426 in assay [2] (first compound 0.01 µM); 0.375 in assay [2] (first compound 0.03162 µM); 0.227 in assay [2] (first compound 0.1 µM); 0.992 with Halofuginone + Alpelisib (first compound 0.001 µM); 1.03 with Halofuginone + Alpelisib (first compound 0.003162 µM). Further, the relative viability in the assay with Halofuginone + Alpelisib (first compound 0.01 µM) was 0.902; with Halofuginone + Alpelisib (first compound 0.03162 µM), 1.04; with Halofuginone + Alpelisib (first compound 0.1 µM) it was 0.423; with Cediranib + Vorinostat (first compound 0.04 µM), 0.633; with Cediranib + Vorinostat (first compound 0.1265 µM), 0.418; with Cediranib + Vorinostat (first compound 0.4 µM) it was 0.575. In addition, the relative viability with Cediranib + Vorinostat (first compound 1.265 µM) turned out to be 0.468; in the assay with Cediranib + Vorinostat (first compound 4 µM) it was 0.896.

Turning to IA-LM, the relative viability in the assay with Halofuginone + Alpelisib (first compound 0.001 µM) stood at 0.829; with Halofuginone + Alpelisib (first compound 0.003162 µM) it was 0.982; with Halofuginone + Alpelisib (first compound 0.01 µM), 0.664; in the assay with Halofuginone + Alpelisib (first compound 0.03162 µM) it was 0.606; with Halofuginone + Alpelisib (first compound 0.1 µM), 0.161; with Cediranib + Vorinostat (first compound 0.04 µM), 1.12. Moreover, the relative viability in the assay with Cediranib + Vorinostat (first compound 0.4 µM) was 0.895; in the assay with Cediranib + Vorinostat (first compound 1.265 µM) it was 1.03; with Cediranib + Vorinostat (first compound 4 µM), 1.06.

For LC-2-ad, the relative viability in assay [1] (first compound 0.001 µM) is 0.476; in assay [1] (first compound 0.003162 µM), 0.508; in assay [1] (first compound 0.01 µM), 0.422; in assay [1] (first compound 0.03162 µM), 0.351; in assay [1] (first compound 0.1 µM) it was 0.225; in assay [2] (first compound 0.001 µM), 0.504. For the same cell line, the relative viability in assay [2] (first compound 0.003162 µM) is 0.505; in assay [2] (first compound 0.01 µM), 0.456; in assay [2] (first compound 0.03162 µM), 0.478; in assay [2] (first compound 0.1 µM), 0.411; with Halofuginone + Alpelisib (first compound 0.001 µM) it was 0.952; with Halofuginone + Alpelisib (first compound 0.003162 µM), 0.847. Also, the relative viability with Halofuginone + Alpelisib (first compound 0.01 µM) was determined as 0.861; in the assay with Halofuginone + Alpelisib (first compound 0.03162 µM), 0.772; with Halofuginone + Alpelisib (first compound 0.1 µM), 0.334; with Cediranib + Vorinostat (first compound 0.04 µM), 0.678; with Cediranib + Vorinostat (first compound 0.1265 µM) it was 0.625; in the assay with Cediranib + Vorinostat (first compound 0.4 µM), 0.669. For the same cell line, the relative viability with Cediranib + Vorinostat (first compound 1.265 µM) was 0.825; in the assay with Cediranib + Vorinostat (first compound 4 µM) it was 0.705.

On to LCLC-97TM1, for which the relative viability in assay [1] (first compound 0.001 µM) was found to be 0.265; in assay [1] (first compound 0.003162 µM), 0.247; in assay [1] (first compound 0.01 µM), 0.203; in assay [1] (first compound 0.03162 µM), 0.243; in assay [1] (first compound 0.1 µM) it was 0.208; in assay [2] (first compound 0.001 µM) it was 0.3. In addition, the relative viability in assay [2] (first compound 0.003162 µM) was 0.194; in assay [2] (first compound 0.01 µM), 0.257; in assay [2] (first compound 0.03162 µM), 0.239; in assay [2] (first compound 0.1 µM), 0.219; with Halofuginone + Alpelisib (first compound 0.001 µM), 0.298; with Halofuginone + Alpelisib (first compound 0.003162 µM), 0.23. The relative viability with Halofuginone + Alpelisib (first compound 0.01 µM) stood at 0.305; in the assay with Halofuginone + Alpelisib (first compound 0.03162 µM), 0.209; with Halofuginone + Alpelisib (first compound 0.1 µM), 0.199; with Cediranib + Vorinostat (first compound 0.04 µM), 0.655; in the assay with Cediranib + Vorinostat (first compound 0.4 µM), 0.536; in the assay with Cediranib + Vorinostat (first compound 1.265 µM) it was 0.707. In addition, the relative viability with Cediranib + Vorinostat (first compound 4 µM) is 1.08.

Take LCLC-103H: the relative viability is 0.503 in assay [1] (first compound 0.001 µM); 0.59 in assay [1] (first compound 0.003162 µM); 0.446 in assay [1] (first compound 0.01 µM); 0.443 in assay [1] (first compound 0.03162 µM); 0.425 in assay [1] (first compound 0.1 µM); 0.492 in assay [2] (first compound 0.001 µM). Also, the relative viability in assay [2] (first compound 0.003162 µM) came out at 0.491; in assay [2] (first compound 0.01 µM), 0.462; in assay [2] (first compound 0.03162 µM), 0.467; in assay [2] (first compound 0.1 µM), 0.523; in the assay with Halofuginone + Alpelisib (first compound 0.001 µM) it was 1.09; with Halofuginone + Alpelisib (first compound 0.003162 µM), 1.02. For the same cell line, the relative viability was determined as 0.915 with Halofuginone + Alpelisib (first compound 0.01 µM); 0.954 with Halofuginone + Alpelisib (first compound 0.03162 µM); 0.956 with Halofuginone + Alpelisib (first compound 0.1 µM); 0.824 with Cediranib + Vorinostat (first compound 0.04 µM); 0.572 with Cediranib + Vorinostat (first compound 0.1265 µM); 0.767 with Cediranib + Vorinostat (first compound 0.4 µM). Moreover, the results for the relative viability with Cediranib + Vorinostat (first compound 1.265 µM) and in the assay with Cediranib + Vorinostat (first compound 4 µM) were 0.78 and 0.898, respectively.

Consider LK-2, for which the relative viability in assay [1] (first compound 0.001 µM) came to 0.163; in assay [1] (first compound 0.003162 µM), 0.164; in assay [1] (first compound 0.01 µM) it was 0.184; in assay [1] (first compound 0.03162 µM) it was 0.16; in assay [1] (first compound 0.1 µM), 0.181; in assay [2] (first compound 0.001 µM), 0.736. Also, the relative viability worked out at 0.714 in assay [2] (first compound 0.003162 µM); 0.691 in assay [2] (first compound 0.01 µM); 0.777 in assay [2] (first compound 0.03162 µM); 0.552 in assay [2] (first compound 0.1 µM); 0.949 in the assay with Halofuginone + Alpelisib (first compound 0.001 µM); 1.13 with Halofuginone + Alpelisib (first compound 0.003162 µM). The relative viability in the assay with Halofuginone + Alpelisib (first compound 0.01 µM) turned out to be 1.02; in the assay with Halofuginone + Alpelisib (first compound 0.03162 µM), 1.14; in the assay with Halofuginone + Alpelisib (first compound 0.1 µM), 0.926; with Cediranib + Vorinostat (first compound 0.04 µM), 0.352; with Cediranib + Vorinostat (first compound 0.1265 µM), 0.332; with Cediranib + Vorinostat (first compound 0.4 µM) it was 0.421. Moreover, the relative viability with Cediranib + Vorinostat (first compound 1.265 µM) is 0.353; with Cediranib + Vorinostat (first compound 4 µM), 0.279.

The record behind these values is the supplement of paper PMC10307832.
